Experimental data as given in patent US10584154B2, “Vesicles comprising lectins expressed on the surface and methods of use thereof to deliver an agent to autophagic and apoptotic cells” (TZU CHI UNIVERSITY, priority 2017, dated 2020).

Experiments:
[1] = system: apoptotic cells (mouse B16-F10 cells suspended for 4 hours); assay: Blocking of liposomes targeting to apoptotic cells (flow cytometry); format: cell-based; details: M6PR+P-selectin, M6PR+PSGL-1 groups
Method: (§1) The mouse B16-F10 cells were suspended for 4 hours to induce autophagy and apoptosis. The autophagy and apoptosis cell were labeled with green fluorescent dyes (GFDs), using Cyto-ID autophagy detection kit (Enzo Life Sciences) (see FIG. 1 and FIG. 3) and CaspGLOW™ Red Active Caspase-3 Staining Kit (BioVision) (see FIG. 2 and FIG. 4) kits, respectively. The autophagy and apoptosis cell containing populations were engaged with various protein conjugated liposomes, which were labeled with fluorescent dye calcein-red (CR). The percentage of B16-F10-liposome engaged populations (GFD and CR double positive populations) were determined using flow cytometry. The levels of liposomes and fluorescent beads engaged with none conjugated cells (the “unconjugated” groups) were normalized to 100% (see FIG. 1 and FIG. 2).
(§2) The mouse B16-F10 cells were suspended for 4 hours and then treated with blocking antibody or soluble M6PR recombinant protein plus additional M6PR+P-selectin-conjugated liposomes. The autophagy and apoptosis cell were labeled with green fluorescent dyes (GFDs), using Cyto-ID autophagy detection kit (Enzo Life Sciences) and CaspGLOW™ Red Active Caspase-3 Staining Kit (BioVision) kits, respectively. […] The percentage of B16-F10-liposome engaged populations (GFD and CR double positive populations) were determined using flow cytometry. […]

[2] = system: autophagy cells (mouse B16-F10 cells suspended for 4 hours); assay: Blocking of liposomes targeting to autophagy cells (flow cytometry); format: cell-based; details: M6PR+P-selectin, M6PR+PSGL-1 groups
Method: as §1, §2

sialyl-lewis x oligosaccharide
antidote: blocking of P-selectin, E-selectin and PSGL-1-conjugated liposomes targeting to apoptotic cells [1]: able to serve as the antidotes
antidote: blocking of P-selectin, E-selectin and PSGL-1-conjugated liposomes targeting to autophagy cells [2]: able to serve as the antidotes
